The results in this text go back to patent EP0408108A2, “Pharmaceutical compositions containing acrylic acid derivatives and their use in the medicine” (RICHTER GEDEON VEGYESZETI GYAR R.T., priority 1989, dated 1991).

For assay [1], the system named is gastric injuries induced by acidic alcohol. Briefly: Assay of gastric injuries induced by acidic alcohol (Robert). Particulars: for inhibition at 10 mg/kg / ED50: Rattus norvegicus, po, pretreatment 30 min; for inhibition at 10 mg/kg: read-out: % Inhibition at a dose of 10 mg/kg p.o. (pretreatment: 30 min); for ED₅₀ p.o. (pretreatment: 30 min) / ED50: haemorrhagic lesions after acidic alcohol, female rats; for ED50: read-out: ED₅₀ p.o. (pretreatment: 30 min). It counts as in vivo, rats. Here is the method: 1) Assay of gastric injuries induced by acidic alcohol [A. Robert, Gastroenterology, 77, 761-767 (1979)] Female rats weighing about 120 to 150 g fasted for 24 hours were used in this test. Test compounds suspended with Tween 80 were given orally to the animals through an intragastric tube. After a certain period (pretreatment time) acidic alcohol was given through the intragastric tube at a dose or 0.5 ml per 100 g of body weight. The animals were sacrificed after 1 hour, their stomach was removed and incised along the great curve. The length of the reddish-brown strips (haemorrhagic lesions) was measured and the mean total length per stomach was calculated. The biological activity of the test compounds was given compared to the control group.

The subject of assay [2] is chronic ulcer model induced by acetic acid. Briefly: Assay of a chronic ulcer model induced by acetic acid (Tagaki et al). The assay is classed as in vivo, rats. Particulars: from day 5 to day 10 after operation, sacrificed day 15. As for the experimental part: 2)Assay of a chronic ulcer model induced by acetic acid
The assay was carried out in the following manner. Abdominal wall of femal rats previously fasted for 24 hours was incised under ether anaesthesia. A 20% solution of acetic acid (25 µl) was injected to the subserosus layer of the glandular part of the stomach near the pylorus. Thereafter the abdominal wall was closed and the animal was kept on normal diet, by providing feed and water ad libitum. The treatment was started 5 days after the operation and continued until the 10th day by administering the test compound once a day The animals were sacrificed 15 days after the operation and their stomach was removed. The extent of the ulcer was determined by measuring the diameter of the necrotic regions and calculating their total area. The curative effect of the tested compounds was calculated by the following formula in %: [formula]

The next assay concerns gastric acid secretion. The assay can be described thus: Assay of the inhibition of gastric acid secretion by using pylorus ligature (Shay et al.). It counts as in vivo, Wistar rats. The note with it: for inhibition at 10 mg/kg: read-out: % Inhibition in the amount of the acid at a dose of 10 mg/kg p.o. (pretreatment: 30 min). Here is the method: 3) Assay of the inhibition of gastric acid secretion -by using pylorus ligature
[Shay et al., Gastroenterology, 5, 43-61 (1945)]
Before ligating the pylorus the test compounds suspended with Tween were given orally at a volume of 0.5 ml per […] of body weight to female Wistar rats fasted previously for 20 hours. The animals were sacrificed 4 hours after the operation, and the amount of the acid in the stomach was measured by titration with 0.01N sodium hydroxide solution in the presence of phenolphtalein indicator. The pH value of the content of stomach was measured by using a pH-meter (Radelkis, Type OP-211/1).

In the next assay the test system is Campylobacter pylori. Briefly: Activity against Campylobacter pylori by agar diffusion and agar dilution methods. The assay is classed as cell-based. The note with it: Helicobacter pylori; Campylobacter pylori cultures isolated from 5 different ulcerous patients; read-out: MIC (minimal inhibitory concentration). As for the experimental part:
The activity of the compounds of formula (I) against Campylobacter pylori was investigated by agar diffusion and agar dilution methods. The experiments were carried out with Campylobacter pylori cultures isolated from 5 different ulcerous patients.

Where [3] appears, read: 10 mg/kg p.o., compared to the control group.
Setting [4] is: Rattus norvegicus, po, 10 mg/kg p.o., pretreatment 30 min, acid titrated 4 hours after pylorus ligature.

Broadly, the % Inhibition is the percentage by which the read-out fell short of the control.

Converted amounts (≈) assume the structure as drawn.

`O=C(O)/C=C\S(=O)(=O)c1ccccc1` [Compound E, 3-phenylsulfonyl-2(Z)-propenoic acid]: in assay [1] (setting [3]), the inhibition at 10 mg/kg is 13%.

Turning to `O=C(O)/C=C/S(=O)(=O)c1ccccc1` [F, 3-phenylsulfonyl-2(E)-propenoic acid], the “% Inhibition at a dose of 10 mg/kg p.o. (pretreatment: 30 min)” value in assay [1] (setting [3]) is listed as 86%. The “ED₅₀ p.o. (pretreatment: 30 min)” value in assay [1] stood at 3.4 mg/kg; in the assay on gastric acid secretion (p.o., gastric acid secretion, pylorus ligature, 4 hours after operation) it was 12.0 mg/kg. For the same compound, the “% Curative effect” value in assay [2] (50 mg/kg p.o. once a day) is on record as 37%. In addition, in the assay with gastric acid secretion (10 mg/kg p.o., acid titrated 4 hours after pylorus ligature), the “% Inhibition in the amount of the acid at a dose of 10 mg/kg p.o. (pretreatment: 30 min)” value stood at 48%.

For `O=C(O)/C=C\[S+]([O-])c1ccccc1` (stereo not drawn) [C, 3-phenylsulfinyl-2(Z)-propenoic acid], the inhibition at 10 mg/kg in assay [1] (setting [3]) is 56%; with gastric acid secretion (setting [4]), 15%.

As to `O=C(O)/C=C/S(=O)(=O)c1ccccc1` [H, magnesium bis[3-phenylsulfonyl-2(E)-propenoate]hydrate], the ED50 in assay [1] was 3.2 mg/kg; with gastric acid secretion (Rattus norvegicus, po, pretreatment 30 min, gastric acid secretion, pylorus ligature, 4 hours after operation, read-out: ED₅₀ p.o. (pretreatment: 30 min)), 10 mg/kg. The inhibition at 10 mg/kg in assay [1] (setting [3]) was found to be 96%; in the assay with gastric acid secretion (setting [4]) it was 63%. In assay [2] (30 mg/kg p.o. once a day), the “% Curative effect” value is given as 27%.

Regarding `COC(=O)/C=C/S(=O)(=O)c1ccccc1` [I, methyl 3-phenylsulfonyl-2(E)-propenoate], the values for the inhibition at 10 mg/kg (in assay [1] (setting [3]); in the assay with gastric acid secretion (setting [4])) were 98% and 21%, respectively. Moreover, in assay [2] (30 mg/kg p.o. once a day), the “% Curative effect” value was determined as 73%. In addition, the MIC in the assay on Campylobacter pylori was in the range of 250 to 270 µg/mL (≈ 1100 to 1190 µM).

Consider `O=C(O)/C=C/Sc1ccccc1` [G, magnesium bis[3-phenylthio-2(E)-propenoate]], for which, in the assay with gastric acid secretion (setting [4]), the inhibition at 10 mg/kg is 16%.

Take `O=C(O)/C=C/Sc1ccccc1` [B, 3-phenylthio-2(E)-propenoic acid]: in assay [1], the ED50 was 31 mg/kg.

As for Sucralfat [reference compound], the “ED₅₀ p.o. (pretreatment: 30 min)” value in assay [1] is given as 150 mg/kg. Further, in assay [2] (500 mg/kg p.o. once a day), the “% Curative effect” value came to 55%.

On to `O=C(O)/C=C/[S+]([O-])c1ccccc1` (stereo not drawn) [Compound D, 3-phenylsulfinyl-2(E)-propenoic acid], for which, in assay [1], the ED50 amounted to 4.2 mg/kg. The inhibition at 10 mg/kg in assay [1] (setting [3]) came to 64%; in the assay on gastric acid secretion (setting [4]), 22%.
